The subject of one test is HEK293mNPSR cells. Kind of test: DMR response to NECA with and without rolipram in HEK293mNPSR cells. The test is classed as cell-based. To be noted: NECA 10 μmol L^−1 + rolipram 10 μmol L^−1 (90 minute before), P < 0.05 vs NECA alone. As for the experimental part:
Confluent cells were subcultured using trypsin/EDTA and used for experiments. Cells were seeded at a density of 20 000 cells/well in 30 μL into fibronectin‐coated Enspire™‐LC 384‐wells plates and cultured for 20 hours to form a confluent monolayer. On the day of the experiment, cells were manually washed twice and maintained with assay buffer for 90 minutes before DMR experiments. DMR was monitored in real time with a temporal resolution of 22 seconds throughout the assay. Experiments were performed at 37°C, using an EnSight Multimode Plate Reader (PerkinElmer), that uses the Corning® Epic® Technology to measure the DMR signal. Agonism protocol: a 5‐minute baseline was first established, followed by adding compounds manually in a volume of 10 μL and recording compounds‐triggered DMR signal for 60 minute. Antagonism protocol: antagonists were added manually 25 minute before reading the 5‐minute baseline. After baseline establishment, NPS was injected and DMR signal was recorded for 60 minute. Antagonist properties of ligands were measured by assessing the concentration‐response curve to NPS in the absence and in presence of a fixed concentration of compound. […] Maximum picometer (pm) modifications (peak measured at 60 minute time point) were used to determine agonist response after baseline normalization. […]

The target in test [1] is T1, murine NPSR (Mus musculus, UniProt Q8BZP8).
T1 construct: expressed in transfected cells
T1 sequence (Q8BZP8 1-371): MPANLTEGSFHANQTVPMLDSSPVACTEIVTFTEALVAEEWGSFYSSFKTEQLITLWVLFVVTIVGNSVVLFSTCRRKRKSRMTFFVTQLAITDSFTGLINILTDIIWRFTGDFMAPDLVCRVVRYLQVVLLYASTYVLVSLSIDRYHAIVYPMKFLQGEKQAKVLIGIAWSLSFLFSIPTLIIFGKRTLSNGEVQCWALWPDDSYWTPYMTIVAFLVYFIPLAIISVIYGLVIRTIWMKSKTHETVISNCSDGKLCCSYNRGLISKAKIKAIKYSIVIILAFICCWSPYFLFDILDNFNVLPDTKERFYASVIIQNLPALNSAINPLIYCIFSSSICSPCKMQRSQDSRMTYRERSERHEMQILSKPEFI
In words: Dynamic mass redistribution (DMR) assay in HEK293mNPSR cells. The test is classed as cell-based. To be noted: for DMR response, HEK293mNPSR pm ± SEM: peak at 60 minute, mean ± SEM, duplicate. As for the experimental part:
(§1) HEK293 cells stably expressing the murine NPSR receptor (HEK293mNPSR) were described previously.3 Wild‐type HEK293 cells were used as a control. Cells were maintained in Dulbecco's Medium (DMEM) supplemented with 10% fetal bovine serum, 100 U/mL penicillin, 100 μg/mL streptomycin and, 2 mmol L^−1 L‐glutamine. The medium was complemented with 100 mg/L hygromycin for HEK293mNPSR. Cells were cultured at 37°C in 5% CO2 humidified air.
Confluent cells were subcultured using trypsin/EDTA and used for experiments. […] On the day of the experiment, cells were manually washed twice and maintained with assay buffer for 90 minutes before DMR experiments. DMR was monitored in real time with a temporal resolution of 22 seconds throughout the assay. Experiments were performed at 37°C, using an EnSight Multimode Plate Reader (PerkinElmer), that uses the Corning® Epic® Technology to measure the DMR signal. Agonism protocol: a 5‐minute baseline was first established, followed by adding compounds manually in a volume of 10 μL and recording compounds‐triggered DMR signal for 60 minute. Antagonism protocol: antagonists were added manually 25 minute before reading the 5‐minute baseline. After baseline establishment, NPS was injected and DMR signal was recorded for 60 minute. Antagonist properties of ligands were measured by assessing the concentration‐response curve to NPS in the absence and in presence of a fixed concentration of compound. FR900359 was added 60 minute before NPS, rolipram was incubated for 90 minute before NPS, while PTX was added 24 hours before NPS. Maximum picometer (pm) modifications (peak measured at 60 minute time point) were used to determine agonist response after baseline normalization.
All data were analyzed using Graph Pad Prism 6.0 (La Jolla, CA, USA). Concentration‐response curves were fitted using the four parameters log logistic equation. Data are expressed as mean ± SEM of n experiments performed in duplicate and were analyzed using one‐ or two‐way analysis of variance (ANOVA) followed by Dunnett's or Tukey's test for multiple comparisons wherever appropriate. […] Antagonists potencies were assayed at single concentrations against the concentration‐response curve to NPS and their pA2 was derived using the following equation: pA2 = log(CR − 1) − log[A], where CR is the ratio between agonist potency (EC50) in the presence and in absence of antagonist and [A] is the molar concentration of antagonist.

Another test relates to wild-type HEK293 cells. In words: DMR assay in wild-type HEK293 cells (control). The test is classed as cell-based, Human. To be noted: ligand 10 μmol L^−1, 37°C, peak at 60 minute after baseline normalization, mean ± SEM, duplicate. As for the experimental part: as §1
Confluent cells were subcultured using trypsin/EDTA and used for experiments. Cells were seeded at a density of 20 000 cells/well in 30 μL into fibronectin‐coated Enspire™‐LC 384‐wells plates and cultured for 20 hours to form a confluent monolayer. On the day of the experiment, cells were manually washed twice and maintained with assay buffer for 90 minutes before DMR experiments. DMR was monitored in real time with a temporal resolution of 22 seconds throughout the assay. Experiments were performed at 37°C, using an EnSight Multimode Plate Reader (PerkinElmer), that uses the Corning® Epic® Technology to measure the DMR signal. Agonism protocol: a 5‐minute baseline was first established, followed by adding compounds manually in a volume of 10 μL and recording compounds‐triggered DMR signal for 60 minute. Antagonism protocol: antagonists were added manually 25 minute before reading the 5‐minute baseline. After baseline establishment, NPS was injected and DMR signal was recorded for 60 minute. Antagonist properties of ligands were measured by assessing the concentration‐response curve to NPS in the absence and in presence of a fixed concentration of compound. FR900359 was added 60 minute before NPS, rolipram was incubated for 90 minute before NPS, while PTX was added 24 hours before NPS. Maximum picometer (pm) modifications (peak measured at 60 minute time point) were used to determine agonist response after baseline normalization.
All data were analyzed using Graph Pad Prism 6.0 (La Jolla, CA, USA). Concentration‐response curves were fitted using the four parameters log logistic equation. Data are expressed as mean ± SEM of n experiments performed in duplicate and were analyzed using one‐ or two‐way analysis of variance (ANOVA) followed by Dunnett's or Tukey's test for multiple comparisons wherever appropriate. Agonist potency was expressed as pEC50, which is the negative logarithm to base 10 of the agonist molar concentration that produces 50% of the maximal possible effect of that agonist. Antagonists potencies were assayed at single concentrations against the concentration‐response curve to NPS and their pA2 was derived using the following equation: pA2 = log(CR − 1) − log[A], where CR is the ratio between agonist potency (EC50) in the presence and in absence of antagonist and [A] is the molar concentration of antagonist.

Test [2] concerns the target T1, murine NPSR. Kind of test: Calcium mobilization assay in HEK293mNPSR cells. The format is cell-based. To be noted: FR900359 injected 24 minute before NPS, Fluo-4 AM, FlexStation II, 37°C. As to the method:
Cells were seeded at a density of 50 000 cells/well in 100 μL into poly‐D‐lysine coated 96‐well black, clear‐bottom plates. The following day, cells were incubated with medium supplemented with 2.5 mmol L^−1 probenecid, 3 μmol L^−1 of the calcium sensitive fluorescent dye Fluo‐4 AM and 0.01% pluronic acid, for 30 minute at 37°C. Following this, the loading solution was aspirated and 100 μL of HBSS supplemented with 20 mmol L^−1 HEPES, 2.5 mmol L^−1 probenecid and 500 μmol L^−1 Brilliant Black were added. Cell culture and drug plates were placed into a fluorimetric imaging plate reader (FlexStation II, Molecular Devices, Sunnyvale, CA) and fluorescent changes were measured. On‐line additions were carried out in a volume of 50 μL/well. To facilitate drug diffusion into the wells, the present studies were performed at 37°C and three cycles of mixing (25 μL from each well moved up and down three times) were performed immediately after FR900359 injection to the wells. FR900359 was injected into the wells 24 minute before adding NPS.
All data were analyzed using Graph Pad Prism 6.0 (La Jolla, CA, USA). […] Data are expressed as mean ± SEM of n experiments performed in duplicate and were analyzed using one‐ or two‐way analysis of variance (ANOVA) followed by Dunnett's or Tukey's test for multiple comparisons wherever appropriate. […]

Another test relates to NPSR. To be noted: cited from earlier work. From the text: The pharmacological profile of NPSR in the DMR assay has been investigated using several NPSR ligands acting as full and partial agonists and pure antagonists in the calcium mobilization assay. The DMR effects of these compounds solely derive from their capability to activate NPSR since we selected their concentration range based on lack of DMR signal in wild‐type cells. Overall, the DMR pharmacological profile of NPSR looks similar but not identical to that reported in literature using the calcium mobilization assay. The first aspect that deserves attention is related to the efficacy of NPSR ... || Regarding NPSR agonists, another point that must be addressed is the pharmacological behavior of PWT1‐NPS. […] The high in vitro potency of PWT1‐NPS was associated with a high in vivo potency and long‐lasting duration of action.31 These features seem to be common to PWT derivatives of other neuropeptides including nociceptin/orphanin FQ, opioids and tachykinins (reviewed in 40). In DMR experiments, we were not able to fully investigate the pharmacologic ...

Where “and” joins values, the source holds several entries; their conditions need not be identical. Identical values can stand only once. Marks after values point to notes of the source that are not given here. Numbered stars: 1 amine (or outer) side, 2 acyl side, 3 side chain; on linkers, the order of the positions; unused ones are H or OH. Bridge positions count the residues as written; N and C are the ends. Square brackets hold non-standard residues; d marks the D form. Peptide text beside a SMILES is read from it. * marks the point of attachment. Leu(3R-OH,Nα-propionyl) = CCC(=O)N[C@H](C(=O)*)[C@H](O)C(C)C; X1 = CC(C)[C@@H](O[*:3])[C@H](N[*:1])C(=O)[*:2]; NMeT = CN[C@H](C(=O)O)[C@@H](C)O; dPhLac = O=C(O)[C@H](O)Cc1ccccc1; NMeA = CN[C@@H](C)C(=O)O; NMeDha = C=C(NC)C(=O)O

Regarding `CCNC(=O)[C@H]1O[C@@H](n2cnc3c(N)ncnc32)[C@H](O)[C@@H]1O` [NECA, (2S,3S,4R,5R)‐5‐(6‐aminopurin‐9‐yl)‐N‐ethyl‐3,4‐dihydroxyoxolane‐2‐carboxamide, reference compound], the “DMR response of NECA in presence of rolipram” value in the test with HEK293mNPSR cells stood at 464 ± 58 pm. Also, the “DMR response, HEK293mNPSR pm ± SEM” value on murine NPSR [1] (ligand 10 μmol L^−1, 37°C) was 229 ± 18 pm and 229 ± 18 ^a pm. In the test on wild-type HEK293 cells, the “DMR response, HEK293 pm ± SEM” value was 312 ± 28 ^a pm.

For `C=C1C(=O)N[C@@H](C)C(=O)N(C)[C@@H](C)C(=O)N[C@@H]([C@H](OC(=O)[C@@H](NC(=O)CC)[C@H](O)C(C)C)C(C)C)C(=O)N(C)[C@@H]([C@@H](C)OC)C(=O)O[C@H](C(C)C)[C@H](NC(C)=O)C(=O)O[C@H](Cc2ccccc2)C(=O)N1C` [FR900359, [(1R)‐1‐[(3S,6S,9S,12S,18R,21S,22R)‐21‐acetamido‐18‐benzyl‐3‐[(1R)‐1‐methoxyethyl]‐4,9,10,12,16‐pentamethyl‐15‐methylidene‐2,5,8,11,14,17,20‐heptaoxo‐22‐propan‐2‐yl‐1,19‐dioxa‐4,7,10,13,16‐pentazacyclodocos‐6‐yl]‐2‐methylpropyl] (2S,3R)‐3‐hydroxy‐4‐methyl‐2‐(propanoylamino)pentanoate, reference compound] (Ac-[X1][dPhLac][NMeDha]A[NMeA][X1](Leu(3R-OH,Nα-propionyl))[NMeT](Me); ester 1-C), the “Effect of inhibitor on NPS stimulated calcium mobilization” value at murine NPSR [2] is “completely abolished”. Also, the “Effect of inhibitor on NPS-evoked DMR response” value at murine NPSR [1] (FR900359 1 μmol L^−1 (60 minute before NPS), PTX 100 ng mL^−1 (24 hours before), rolipram 10 μmol L^−1 (90 minute before)) is on record as “strongly, but not completely, reduced NPS effects”.

As to [D‐Cys(^tBu)^5]NPS, the “behaviour in the calcium mobilization assay” value in the test on NPSR is on record as “pure NPSR antagonist”. For the same compound, at murine NPSR [1] (ligand 1 μmol L^−1, 37°C), the “DMR response, HEK293mNPSR pm ± SEM” value was 387 ± 43 pm and 387 ± 43 ^a pm. The “DMR response as % of NPS maximal effect” value at murine NPSR [1] (ligand 1 μmol L^−1 alone) is on record as 58%.

The values above are taken from paper PMC6277375, “Pharmacological profile of the neuropeptide S receptor: Dynamic mass redistribution studies” (Pharmacology Research & Perspectives, 2018).
